Experimental data taken from US4663332A, “5-substituted N-alkylated tetrazoles” (Hoffman-La Roche Inc., priority 1985, dated 1987).

Experiments:
[1] = target: T1, PAF binding to dog platelets (Canis lupus familiaris, UniProt A0A8I3NSH0); experiment: PAF Radioreceptor Binding Assay (PAF Binding); conditions: inhibition of 3H-PAF binding to dog platelets, 10 min, room temperature
T1 construct: from tissue; host or cells: washed platelets from citrate-treated dog blood
T1 sequence (A0A8I3NSH0 1-343): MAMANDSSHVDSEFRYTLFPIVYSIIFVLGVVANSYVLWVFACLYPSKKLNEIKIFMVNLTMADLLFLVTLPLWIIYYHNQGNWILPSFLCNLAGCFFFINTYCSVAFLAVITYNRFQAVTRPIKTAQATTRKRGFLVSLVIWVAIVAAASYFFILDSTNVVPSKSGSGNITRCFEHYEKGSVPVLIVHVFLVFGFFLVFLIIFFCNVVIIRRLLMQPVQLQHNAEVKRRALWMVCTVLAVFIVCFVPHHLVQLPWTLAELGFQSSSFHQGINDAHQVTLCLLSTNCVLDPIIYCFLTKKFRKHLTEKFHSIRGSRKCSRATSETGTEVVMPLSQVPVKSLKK
Description: (1) PAF Radioreceptor Binding Assay (PAF Binding)
Platelet rich plasma is prepared by centrifugation of citrate-treated dog blood. Acidification to pH 6.5 with 0.15M citric acid and centrifugation for 10 minutes at 1000×g yields a platelet pellet which is then washed by resuspension in EDTA-Phosphate Buffered Saline (PBS) and recentrifuged. The washed platelet preparation is adjusted to 2×10^7 platelets/50 μl in 0.1% bovine serum albumin-PBS.
To a 400 μl microfuge tube containing 50 μl silicone oil (specific gravity 1.023) is added buffer, PAF standard or analog, or an extract to bring the aqueous volume to 150 μl. 50 μl of ^3 H-PAF (10,000 cpm, 45 Ci/mM) is added followed by 2×10^7 dog platelets. After mixing, incubating for 10 minutes at room temperature, and centrifuging for 1 minute in a Beckman Microfuge B (8000×g), the pellet is removed by clipping off the tip of the tube, the platelets are solubilized with 200 μl of 50% methanol and counted in 10 ml of Aquasol. […] Results obtained with representative copounds of the present invention in this assay are summarized hereinafter in Tables I and II. IC50 is drug concentration (μMolar) which inhibits PAF binding to dog platelets by 50%.

TXA2 synthase = target: T2, TXA2 synthase (Homo sapiens, UniProt P24557); experiment: Thromboxane Synthase Inhibition, In Vitro (TXA2 Synth. Inhib.); assay type: biochemical; conditions: human platelet microsomes, 10 μM 14C-PGH2, 22° C., 2 min
T2 construct: using microsomal fractions from human platelets as enzyme source; from tissue; host or cells: microsomal fractions from human platelets
T2 sequence (P24557 1-533): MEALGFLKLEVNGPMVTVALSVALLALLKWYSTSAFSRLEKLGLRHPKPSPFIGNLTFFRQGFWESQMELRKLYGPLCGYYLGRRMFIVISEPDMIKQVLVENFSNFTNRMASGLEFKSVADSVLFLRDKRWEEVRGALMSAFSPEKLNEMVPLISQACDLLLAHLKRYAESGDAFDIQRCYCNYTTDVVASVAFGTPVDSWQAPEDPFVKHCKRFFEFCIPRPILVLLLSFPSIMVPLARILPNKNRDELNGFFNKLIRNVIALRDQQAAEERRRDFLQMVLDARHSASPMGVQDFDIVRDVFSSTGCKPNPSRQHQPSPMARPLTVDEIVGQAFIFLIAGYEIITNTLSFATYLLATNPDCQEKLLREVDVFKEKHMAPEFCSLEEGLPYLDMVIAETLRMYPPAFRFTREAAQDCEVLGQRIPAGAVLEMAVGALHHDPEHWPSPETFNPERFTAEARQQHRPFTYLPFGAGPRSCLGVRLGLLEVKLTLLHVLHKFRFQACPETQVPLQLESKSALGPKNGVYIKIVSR
Description: (2) Thromboxane Synthase Inhibition, In Vitro (TXA2 Synth. Inhib.)
TXA2 synthase activity is measured by following the conversion of ^14 C-prostaglandin endoperoxide (PGH2) to ^14 C-thromboxane A2 (TXA2) using microsomal fractions from human platelets as enzyme source. In the aqueous incubation medium, the TXA2 decomposes rapidly into TXB2. The amount of TXA2 synthase is adjusted so that under the conditions of the assay approximately 80-90% of the substrate, PGH2, is converted to product in control tubes. To prepare ^14 C-PGH2, ^14 C-AA (50-60 mCi/mmole; Rose Chem.) is incubated with sheep seminal vesicular gland microsomes for 1.5 minutes at 37° C. and then the ^14 C-PGH2 is extracted with diethylether, purified on columns oof Sephadex LH-20 or silicic acid, and stored in acetone at -70° C. Incubations are done as follows. Sufficient ^14 C-PGH2 to yield a final substrate concentration of 10 μM (30,000 cpm) is added to the incubation tubes and then the acetone is removed under nitrogen. The tubes are placed in an ice bath and then 215 μl of ice cold phosphate buffered saline, 10 μl of ethanol (control) or of test drug in ethanol, and 25 μl of the microsomal suspension are added with mixing in that order as rapidly as possible. The tubes are incubated at 22° C. for 2 minutes, the reaction is stopped and then the radioactive products and the unconverted PGH2 are extracted and analyzed by thin layer chromatography. […] The amount of ^14 C-PGH2 converted to products was used as a measure of TXA2 synthase activity. Inhibitors were tested initially at a final concentration 100 μM. Results obtained with representative compounds of the present invention in this assay are summarized hereafter in Tables I and II. IC50 is the drug concentration (μMolar) which inhibits TXA2 activity by 50%.

PAF [2] = experiment: Inhibition of PAF Induced Guinea Pig Bronchoconstriction Test (Inhib. of PAF Broncho.); assay type: in vivo, guinea pig (Hartley strain); conditions: Cavia porcellus, iv; 1 mg/kg i.v. (1 min. pretreat)
Description: (3) Inhibition of PAF Induced Guinea Pig Bronchoconstriction Test (Inhib. of PAF Broncho.)
Male guinea pigs (Hartley strain) weighing 300 to 500 g are anesthetized with urethane (2 g/kg) intraperitoneally and a polyethylene cannula is inserted into the jugular vein for drug administration. Tracheal pressure is recorded from a cannula inserted in the trachea and connected to a Statham pressure transducer. Propranolol (0.1 mg/kg) is administered intravenously five minutes before challenge with synthetic PAF, the animal's skeletal muscles are then paralyzed with succinylcholine (1.2 mg/kg i.v.), and the animal is respirated using a Harvard small animal respirator operating at 40 breaths/min and 2.5 cc stroke volume. Under these conditions PAF induces a dose-dependent increase in ventilatory pressure over a dose range of 0.5 to 5 μg/kg i.v. For screening purposes animals are challenged with a single dose of PAF (10 μg/kg i.v.).
The peak increase in ventilatory pressure (cm H2 O) is recorded for three control animals and five drug-treated animals and the percent inhibition determined from the following formula [formula] Results obtained with representative compounds of the invention in this test are summarized hereinafter in Tables I and II.

PAF [3] = experiment: Inhibition of PAF-Induced Platelet Aggregation (Inhib. of PAF Platelet Reduction); assay type: in vivo, guinea pig; conditions: Cavia porcellus, iv, 3 mg/kg i.v.
Description: (5) Inhibition of PAF-Induced Platelet Aggregation (Inhib. of PAF Platelet Reduction)
Guinea pigs (anesthetized) are set up to withdraw blood for platelet counting. The animal is allowed to stabilize after completion of surgical procedures. The carotid catheter is allowed to bleed back blood and then is filled, prior to each sample withdrawal with sodium citrate 3.8% (0.15 ml). Blood (0.25 ml) is withdrawn 30 seconds prior to the PAF challenge and at 15, 30 and 60 seconds after the PAF challenge. This first PAF challenge is used as the control, assuming sufficient decreases in platelet count are observed. The amount of PAF used will be approximately 50 ng/kg, however, this can be increased to achieve the desired decreases in platelet count. Fifteen minutes after the control PAF challenge, intravenous drug dosing begins, with animals being dosed at 30 minute intervals; PAF challenge follows 15 minutes after each intravenous dose. Three intravenous drug doses are used in each experiment. Initial drug doses are 1, 3 and 10 mg/kg i.v. Inhibition of PAF platelet reduction at 3 mg/kg i.v. for representative compounds of the invention are summarized hereinafter in Tables I and II. Percent inhibition is [formula]

PAF [4] = experiment: Inhibition of PAF-Induced Rat Skin Wheal Test (Inhib. of PAF Skin Wheal); assay type: in vivo, Sprague-Dawley rats; conditions: 5 mg/kg i.v., 5 ng PAF intradermally
Description: (4) Inhibition of PAF-Induced Rat Skin Wheal Test (Inhib. of PAF Skin Wheal)
This test evaluates the ability of compounds to inhibit PAF-induced increases in vascular permeability in the skin of Sprague-Dawley rats. PAF induces a dose-dependent skin wheal response in this system over a dose range of 0.0001 to 1 μg/0.05 ml injection. The profound vasoactive activity of PAF is emphasized by the fact that the maximum skin wheal response is considerably greater than that obtained with LTE and an EC50 response is elicited at a 10-fold lower dose. […] Thirty minutes later the animals are sacrificed and the increase in vascular permeability induced by the migration of dye into the injection point in the skin is determined. For this purpose, rats are sacrificed by cervical dislocation,the dorsal skin is removed, the long and short axis of each animal is measured with a metric vernier caliper and the average diameter is obtained. Results obtained are measured as % of migration of dye as compared to untreated animals. More specifically, results are measured as a percent inhibition of the diameters of the wheals formed in a treated animals as compared to untreated animals. […]

LTD4 = experiment: Leukotriene (LTD4) Induced arrhythmia and Hypertension Test; assay type: in vivo, guinea pig (Hartley); conditions: 100 mg/kg po, 3 hour pretreatment, conscious guinea pigs; for No. Animals with Abnormal Beat/No. Tested: first two minutes after LTD4, saline control 12/12; for ↑ABP (increase in blood pressure after LTD4): saline control 30 ± 4; for ↓ABP (decrease in blood pressure after LTD4): saline control -45 ± 4
Description: (6) Leukotriene (LTD4) Induced arrhythmia and Hypertension Test
Male Hartley guinea pigs are anesthetized with sodium pentobarbital and prepared for monitoring direct blood pressure and injecting drugs intravenously by catheterizing the right carotid artery and right jugular vein. Blood pressure, heart rate, and Lead II ECG are monitored in the conscious animal 24 hours later.
The oral activity of a drug is evaluated by pretreating animals 3 hours before the LTD4 challenge.
Intravenous administration of LTD4 2.5 μg/kg) is associated with an increase in blood pressure lasting approximately 1-2 minutes followed by a decrease lasting approximately 5-15 minutes. Abnormal beats consisting of premature ventricular contractions, ST elevation or depression, atrioventricular conduction block, or dissociated p waves begin during the rise in blood pressure; the peak effect occurs approximately 40 seconds after LTD4. The number of animals with abnormal beats within the first two minutes after the injection of LTD4 over the total number of animals tested is presented in Table III. During the hypotensive response, the animal usually collapses during the 2nd or 3rd minute after LTD4 and regains posture approximately 10 minutes after LTD4.

Row | Compound | IC50 [1] [µM] | IC50 (TXA2 synthase) [µM] | inhibition in vivo at 1 mg/kg (PAF [2]) [%] | inhibition in vivo at 3 mg/kg (PAF [3]) [%] | inhibition of PAF skin wheal (PAF [4]) [%] | No. Animals with Abnormal Beat/No. Tested (LTD4) | ↑ABP (increase in blood pressure after LTD4) (LTD4) | ↓ABP (decrease in blood pressure after LTD4) (LTD4)
1 | CCCc1c(OCCCc2nnnn2CCCCc2cccnc2)ccc(C(C)=O)c1O [H H 3 4 3-pyridyl, 1-[2-Hydroxy-3-propyl-4-[3-[1-[4-(3-pyridinyl)butyl]-1H-tetrazol-5-yl]propoxy]phenyl]ethanone] | 0.45 | 0.1 to 1 | 59 ± 12 | 40 |  |  |  | 
2 | CCCc1c(OCCCCCc2nnnn2CCCc2cccnc2)ccc(C(C)=O)c1O [H H 5 3 3-pyridyl, 1-[2-hydroxy-3-propyl-4-[5-[1-[3-(3-pyridinyl)propyl]-1H-tetrazol-5-yl]pentyloxy]phenyl]ethanone] | 0.15 | 0.1 to 1 | 96 ± 1 | 12 |  |  |  | 
3 | CCCc1c(OCCCCCc2nnnn2CCCc2cccnc2)ccc(C(C)=O)c1OC(C)=O [H Ac 5 3 3-pyridyl, 1-[2-Acetoxy-3-propyl-4-[5-[1-[3-(3-pyridinyl)propyl]-1H-tetrazol-5-yl]pentyloxy]phenyl]ethanone] | 0.18 | 0.1 to 1 | 84.8 ± 11 | 31 |  |  |  | 
4 | CCCc1c(OCCCCc2nnnn2CCCn2ccnc2)ccc(C(C)=O)c1O [H H 4 3 1-imidazolyl, 1-[2-Hydroxy-3-propyl-4-[4-[1-[3-(1H-imidazol-1-yl)propyl]-1H-tetrazol-5-yl]butoxy]phenyl]ethanone] | 0.175 | 0.1 to 1 | 8 ± 8 | 3 |  |  |  | 
5 | CCCc1c(OCCCCc2nnnn2CCCc2cccnc2)ccc(C(C)=O)c1O [H H 4 3 3-pyridyl, 1-[2-Hydroxy-3-propyl-4-[4-[1-[3-(3-pyridinyl)propyl]-1H-tetrazol-5-yl]butoxy]phenyl]ethanone] | 0.125 | 0.1 to 1 | 99 |  | 65±3 |  |  | 
6 | CCCc1c(OCCCc2nnnn2CCCc2cccnc2)ccc(C(C)=O)c1O [3 3, 1-[2-Hydroxy-3-propyl-4-[3-[1-[3-(3-pyridinyl)propyl]-1H-tetrazol-5-yl]propoxy]phenyl]ethanone] |  |  |  |  |  | 1/4 | 14 ± 5 Δmm Hg | -23 ± 10 Δmm Hg
7 | CCCc1c(OCCCCCc2nnnn2CCCc2cccnc2)ccc(C(C)=O)c1O [5 3, 1-[2-hydroxy-3-propyl-4-[5-[1-[3-(3-pyridinyl)propyl]-1H-tetrazol-5-yl]pentyloxy]phenyl]ethanone] |  |  |  |  |  | 0/4 | 13 ± 8 Δmm Hg | -20 ± 9 Δmm Hg
